From publication PMC10287695, “Non-covalent inhibitors of thioredoxin glutathione reductase with schistosomicidal activity in vivo” (Nature Communications, 2023)
Several values for one entry are separate records, joined by “and”; a condition that tells them apart may be missing. Equal entries are not always repeated.

Legend:
[1] = molecular target: T1, S. mansoni TGR (Schistosoma mansoni, UniProt Q962Y6); experiment: S. mansoni TGR enzyme inhibition (DTNB reduction); assay type: biochemical; conditions: 15 minutes pre-incubation
T1 construct: made in house
T1 sequence (Q962Y6 1-598): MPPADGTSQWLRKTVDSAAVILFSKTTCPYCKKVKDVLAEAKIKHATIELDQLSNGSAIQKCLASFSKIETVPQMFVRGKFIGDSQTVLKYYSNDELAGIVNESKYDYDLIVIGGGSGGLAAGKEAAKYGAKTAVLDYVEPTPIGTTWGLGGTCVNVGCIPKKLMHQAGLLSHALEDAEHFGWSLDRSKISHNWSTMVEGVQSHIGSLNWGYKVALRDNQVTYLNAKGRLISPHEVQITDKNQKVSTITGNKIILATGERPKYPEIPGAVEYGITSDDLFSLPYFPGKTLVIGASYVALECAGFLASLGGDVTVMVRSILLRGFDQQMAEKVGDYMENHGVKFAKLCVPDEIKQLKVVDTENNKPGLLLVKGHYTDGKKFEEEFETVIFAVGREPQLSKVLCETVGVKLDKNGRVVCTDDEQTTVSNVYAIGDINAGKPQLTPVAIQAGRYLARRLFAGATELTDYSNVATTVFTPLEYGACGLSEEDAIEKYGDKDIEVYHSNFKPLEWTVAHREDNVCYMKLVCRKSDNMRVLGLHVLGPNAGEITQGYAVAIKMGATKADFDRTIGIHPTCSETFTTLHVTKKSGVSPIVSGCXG
Protocol: (§1) Recombinant TGR, human TrxR1, B. malayi (Bm)TrxR and human GR proteins were expressed and purified as described[20],[69],[79]. The codon optimized sequence for P. falciparum (PfTrxR, https://www.ncbi.nlm.nih.gov/protein/CAA60574.1/) with an N-terminal 6-His tag was synthesized and inserted into pET15b (GenScript) and expressed in BL21 (DE3) cells and purified as described for human GR[20]. TGR and TrxR enzyme inhibition assays were performed in triplicate at 25 °C as described[20] in 0.1 M potassium phosphate (pH 7.4), 10 mM EDTA, 100 µM NADPH and 0.01% Tween-20. […] The reaction was started with addition of an equal volume of DTNB (6 mM) and NADPH (100 µM) and the increase in A412 during the first 3 min was recorded. […] The reaction was preincubated for 15 min. Activity was initiated with the addition of 1 mM GSSG and 100 μM NADPH and initial rates of NADPH oxidation were monitored at 340 nm. The reactions were done in triplicate. The IC50 was calculated in GraphPad Prism.

[2] = molecular target: T2, Human TrxR1 (Homo sapiens, UniProt Q16881); experiment: Human TrxR1 enzyme inhibition (DTNB reduction); assay type: biochemical; conditions: 15 minutes pre-incubation
T2 construct: made in house
T2 sequence (Q16881 1-499 isoform Q16881-5): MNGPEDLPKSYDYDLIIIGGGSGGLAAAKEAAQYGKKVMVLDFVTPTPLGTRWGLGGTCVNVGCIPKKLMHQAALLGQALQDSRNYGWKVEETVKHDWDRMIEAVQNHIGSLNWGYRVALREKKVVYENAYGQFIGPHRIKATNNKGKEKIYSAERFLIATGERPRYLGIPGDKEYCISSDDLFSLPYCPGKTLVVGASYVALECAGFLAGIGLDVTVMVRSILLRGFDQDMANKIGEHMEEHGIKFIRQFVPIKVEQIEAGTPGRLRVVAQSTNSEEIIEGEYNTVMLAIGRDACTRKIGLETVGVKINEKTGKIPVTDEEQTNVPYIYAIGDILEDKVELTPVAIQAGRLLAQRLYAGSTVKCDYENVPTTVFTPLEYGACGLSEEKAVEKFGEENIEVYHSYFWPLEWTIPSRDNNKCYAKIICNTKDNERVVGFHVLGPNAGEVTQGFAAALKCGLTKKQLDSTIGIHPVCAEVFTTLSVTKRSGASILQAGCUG
Protocol: as §1

[3] = molecular target: T3, Human GR (Homo sapiens, UniProt P00390); experiment: Human GR enzyme inhibition (GSSG reduction, NADPH oxidation); assay type: biochemical
T3 construct: made in house
T3 sequence (P00390 44-522): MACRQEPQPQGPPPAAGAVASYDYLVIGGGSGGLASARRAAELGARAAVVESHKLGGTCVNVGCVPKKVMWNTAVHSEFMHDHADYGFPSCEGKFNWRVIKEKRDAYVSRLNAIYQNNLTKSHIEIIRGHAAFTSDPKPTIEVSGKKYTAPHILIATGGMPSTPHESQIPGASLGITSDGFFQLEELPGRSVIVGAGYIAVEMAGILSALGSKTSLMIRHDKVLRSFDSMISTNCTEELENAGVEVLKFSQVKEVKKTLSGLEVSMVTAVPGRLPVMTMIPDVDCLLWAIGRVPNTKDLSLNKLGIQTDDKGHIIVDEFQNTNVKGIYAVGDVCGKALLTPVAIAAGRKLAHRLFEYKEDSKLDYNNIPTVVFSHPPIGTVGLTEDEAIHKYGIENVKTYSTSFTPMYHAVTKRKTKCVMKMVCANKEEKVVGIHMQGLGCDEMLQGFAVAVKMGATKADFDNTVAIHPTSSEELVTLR
Protocol: Recombinant TGR, human TrxR1, B. malayi (Bm)TrxR and human GR proteins were expressed and purified as described[20],[69],[79]. The codon optimized sequence for P. falciparum (PfTrxR, https://www.ncbi.nlm.nih.gov/protein/CAA60574.1/) with an N-terminal 6-His tag was synthesized and inserted into pET15b (GenScript) and expressed in BL21 (DE3) cells and purified as described for human GR[20]. TGR and TrxR enzyme inhibition assays were performed in triplicate at 25 °C as described[20] in 0.1 M potassium phosphate (pH 7.4), 10 mM EDTA, 100 µM NADPH and 0.01% Tween-20. TGR, human TrxR1 and BmTrxR (all at 4 nM) and PfTrxR (50 nM) were preincubated with the compounds for 15 min. The reaction was started with addition of an equal volume of DTNB (6 mM) and NADPH (100 µM) and the increase in A412 during the first 3 min was recorded. […] […] Activity was initiated with the addition of 1 mM GSSG and 100 μM NADPH and initial rates of NADPH oxidation were monitored at 340 nm. The reactions were done in triplicate. The IC50 was calculated in GraphPad Prism.

[4] = system: TGR in newly transformed schistosomula (NTS); experiment: TGR inhibition in NTS with TRFS-Green fluorescent probe;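 further: untreated reference is NTS exposed to TRFS-Green probe alone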; assay type: cell-based, S. mansoni; conditions: NTS
Protocol: TGR inhibition in NTS was assessed using a fluorescent probe TRFS-Green (Medchemexpress)[43]. NTS prepared as previously described and cultured in M199 supplemented with 5.5 mM D-glucose, penicillin-streptomycin and 5% heat inactivated fetal bovine serum were incubated at 37 °C in a clear bottom flat well plate in a 5% CO2 incubator overnight. […] NTS were further treated with TRFS-Green (10 µM) for additional 4 h and rinsed with M199 medium to remove residual TRFS-Green. Fluorescence images were obtained using Keyence BZ-X800. The quantification of fluorescence intensity upon the uptake of TRFS-Green by NTS was performed by a fluorescent microplate imager (BioTek Cytation3) (excitation, 438 nm; emission, 538 nm) hourly for 5 h and after 24 h.

C[C@@H]1[C@H]2C[C@@H](C[C@H]1NC(=O)Cc1nc3ccccc3n1C1CCCCC1)C2(C)C [C10]
TGR % inhibition ([1]; 1 µM): 1.833% | TGR % inhibition ([1]; 5 µM): 5.968% | TGR % inhibition ([1]; 15 µM): 42.2698% | TGR % inhibition ([1]; 30 µM): 76.1929% | TGR % inhibition ([1]; 66.7 µM): 82.1691% | hsTrxR % inhibition ([2]; 1 µM): 3.958% | hsTrxR % inhibition ([2]; 5 µM): 29.0366% | hsTrxR % inhibition ([2]; 15 µM): 63.1349% | hsTrxR % inhibition ([2]; 30 µM): 85.1161% | hsTrxR % inhibition ([2]; 66.7 µM): 92.1898% | hGR % inhibition ([3]; 15 minutes pre-incubation, 15 µM): -6.32% | hGR % inhibition ([3]; 15 minutes pre-incubation, 30 µM): -6.329% | hGR % inhibition ([3]; 15 minutes pre-incubation, 66.7 µM): 1.247% | hGR % inhibition ([3]; 6 hours pre-incubation, 15 µM): -1.804% | hGR % inhibition ([3]; 6 hours pre-incubation, 30 µM): -1.476% | hGR % inhibition ([3]; 6 hours pre-incubation, 66.7 µM): -1.27%

C[C@@H]1[C@H]2C[C@@H](C[C@H]1NCc1nc3ccccc3n1C)C2(C)C [C12 (8VP51)]
TGR inhibition visualized by TRFS-Green, Average ([4]; 1hr, 5 µM): 11939.5 | TGR inhibition visualized by TRFS-Green, single replicate ([4]; 1hr, 5 µM): 11982 and 11897 | TGR inhibition visualized by TRFS-Green, Average ([4]; 1hr, 15 µM): 10673 | TGR inhibition visualized by TRFS-Green, single replicate ([4]; 1hr, 15 µM): 10612 and 10734 | TGR inhibition visualized by TRFS-Green, Average ([4]; 1hr, 30 µM): 10618.5 | TGR inhibition visualized by TRFS-Green, single replicate ([4]; 1hr, 30 µM): 10903 and 10334 | TGR inhibition visualized by TRFS-Green, Average ([4]; 2hr, 5 µM): 23845.5 | TGR inhibition visualized by TRFS-Green, single replicate ([4]; 2hr, 5 µM): 23846 and 23845 | TGR inhibition visualized by TRFS-Green, Average ([4]; 2hr, 15 µM): 20564.5 | TGR inhibition visualized by TRFS-Green, single replicate ([4]; 2hr, 15 µM): 20516 and 20613 | TGR inhibition visualized by TRFS-Green, Average ([4]; 2hr, 30 µM): 19325.5 | TGR inhibition visualized by TRFS-Green, single replicate ([4]; 2hr, 30 µM): 19387 and 19264 | TGR inhibition visualized by TRFS-Green, Average ([4]; 3hr, 5 µM): 33943 | TGR inhibition visualized by TRFS-Green, single replicate ([4]; 3hr, 5 µM): 33973 and 33913 | TGR inhibition visualized by TRFS-Green, Average ([4]; 3hr, 15 µM): 30062 | TGR inhibition visualized by TRFS-Green, single replicate ([4]; 3hr, 15 µM): 30013 and 30111 | TGR inhibition visualized by TRFS-Green, Average ([4]; 3hr, 30 µM): 28073.5 | TGR inhibition visualized by TRFS-Green, single replicate ([4]; 3hr, 30 µM): 28013 and 28134 | TGR inhibition visualized by TRFS-Green, Average ([4]; 4hr, 5 µM): 35461 | TGR inhibition visualized by TRFS-Green, single replicate ([4]; 4hr, 5 µM): 35481 and 35441 | TGR inhibition visualized by TRFS-Green, Average ([4]; 4hr, 15 µM): 33991.5 | TGR inhibition visualized by TRFS-Green, single replicate ([4]; 4hr, 15 µM): 33999 and 33984 | TGR inhibition visualized by TRFS-Green, Average ([4]; 4hr, 30 µM): 32914 | TGR inhibition visualized by TRFS-Green, single replicate ([4]; 4hr, 30 µM): 32993 and 32835 | TGR inhibition visualized by TRFS-Green, Average ([4]; 5hr, 5 µM): 41567.5 | TGR inhibition visualized by TRFS-Green, single replicate ([4]; 5hr, 5 µM): 41048 and 42087 | TGR inhibition visualized by TRFS-Green, Average ([4]; 5hr, 15 µM): 38445 | TGR inhibition visualized by TRFS-Green, single replicate ([4]; 5hr, 15 µM): 39026 and 37864 | TGR inhibition visualized by TRFS-Green, Average ([4]; 5hr, 30 µM): 33178.5 | TGR inhibition visualized by TRFS-Green, single replicate ([4]; 5hr, 30 µM): 33374 and 32983 | TGR inhibition visualized by TRFS-Green, Average ([4]; 24hr, 5 µM): 78091 | TGR inhibition visualized by TRFS-Green, single replicate ([4]; 24hr, 5 µM): 78082 and 78100 | TGR inhibition visualized by TRFS-Green, Average ([4]; 24hr, 15 µM): 70233 | TGR inhibition visualized by TRFS-Green, single replicate ([4]; 24hr, 15 µM): 70452 and 70014 | TGR inhibition visualized by TRFS-Green, Average ([4]; 24hr, 30 µM): 60492.5 | TGR inhibition visualized by TRFS-Green, single replicate ([4]; 24hr, 30 µM): 60864 and 60121
